In patent publication US20250275959A1, “COMPOUNDS AND METHODS OF THEIR USE” (LEXICON PHARMACEUTICALS, INC., priority 2024, published 2025) one finds IC50 data, which are given here for 21 compounds.

Assay [1] has as its target T1, hACSL5 (Homo sapiens (Human), UniProt Q9ULC5). Put plainly: Human ACSL5 coupled enzyme Amplex Red assay. Type of assay: biochemical. The settings on record: read-out: hACSL5 IC50. In short, it runs like this: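 Amplex Red coupled readout: 1 mM ATP, 25 μM oleate and 30 μM CoA were added to compound-preincubated enzyme (20 nM, residues 33-683, insect-cell expressed, His-tagged) with coupling peroxidase and acyl-CoA oxidase at pH 7.6. Signal was read at 535/590 nm after 10 minutes at 25° C., and Hill fits yielded half-maximal and maximal inhibition.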
Target sequence in this assay (Q9ULC5 33-683): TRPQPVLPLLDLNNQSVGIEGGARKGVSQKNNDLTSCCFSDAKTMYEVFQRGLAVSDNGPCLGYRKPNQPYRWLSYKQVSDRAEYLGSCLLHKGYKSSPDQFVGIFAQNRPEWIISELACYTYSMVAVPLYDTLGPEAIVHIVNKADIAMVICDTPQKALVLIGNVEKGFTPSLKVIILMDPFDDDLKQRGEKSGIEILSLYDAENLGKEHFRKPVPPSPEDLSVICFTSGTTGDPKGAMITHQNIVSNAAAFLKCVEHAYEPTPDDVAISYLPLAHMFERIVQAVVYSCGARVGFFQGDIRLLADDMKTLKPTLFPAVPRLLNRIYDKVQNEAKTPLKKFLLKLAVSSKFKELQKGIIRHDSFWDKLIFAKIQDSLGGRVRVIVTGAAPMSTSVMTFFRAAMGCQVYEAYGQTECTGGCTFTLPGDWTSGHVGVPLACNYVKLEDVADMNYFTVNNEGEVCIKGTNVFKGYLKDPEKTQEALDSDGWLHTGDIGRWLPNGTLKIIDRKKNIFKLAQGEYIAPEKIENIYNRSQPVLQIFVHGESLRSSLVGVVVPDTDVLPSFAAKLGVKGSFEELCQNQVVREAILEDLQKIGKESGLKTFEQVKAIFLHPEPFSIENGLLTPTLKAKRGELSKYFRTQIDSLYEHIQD

The target of assay [2] is T1, hACSL5. Put plainly: Cell-based assay (CBA) with B12FA in hACSL5-transfected Expi293F / FlpIn TRex293 cells. The note with it: hACSL5-expressing cells. The source says: To assess the cell penetration and cellular activity of the compounds, a cell-based assay (CBA) was used to detect compound potency in living cells. The assay utilized the fluorescent fatty acid analogue B12FA, a boron-dipyrromethene (BODIPY™) labelled C12 fatty acid that can be incorporated into glycerophosphocholine in the cytoplasmic oil droplets of live cells. A concentration-dependent, red-shifted fluorescence can be induced by the formation of BODIPY™ excimers in the oil droplets.
Expi293F cells transfected with full length hACSL5 plasmid were selected using 1 mg/mL G418 culture medium and clones were selected by in vitro whole cell lysate (WCL) assay. The cell passage number used in the Expi293 CBA assay could not be used beyond 10 passages due to a decrease in hACSL5 expression. Therefore, a CBA using FlpIn TRex293 cells for inducible expression of hACSL5 was also established.
FlpIn TRex293 cells transfected with hACSL5 plasmid were selected in culture medium containing 15 µg/ml Blasticidin and 150 µg/ml Hygromycin. For cell-based assays, stable transfected hACSL5 cells were seeded onto a 96-well plate at 30-50k/well and incubated overnight. For the inducible system, […] tetracycline (or doxycycline) was added to culture medium of FlpIn TRex293 hACSL5 cells on the day before the assay to induce expression of hACSL5. The next day, growth media was replaced with culture medium without FBS and glucose (DMEM glucose (-), ThermoFisher) and cells were incubated for an hour before treating cells with serial diluted compounds containing 20 µM B12FA (ThermoFisher) for another 3 hours in the above medium. Cells were then fixed in 4% formaldehyde for 10 minutes and washed twice with PBS. The plate was read using the Cytation 5 imaging system with an excitation wavelength of 485 nm and observed emissions at 630 nm and 520 nm. The percentage of inhibition was calculated as: […]
wherein A is the ratio of emission intensities at 630 nm/520 nm in the absence of inhibitor (maximum ratio); B is the ratio of the intensities at those wavelengths in the presence of […] of the test compound or non-induced cells (minimum ratio); and X is the ratio of the intensities at a given compound concentration.
Concentration-response titration points for each compound tested were filled to the Hill equation yielding concentrations of half maximal inhibition […] and maximal inhibition values.
Target sequence in this assay (Q9ULC5 whole entry, the tested form may be a part): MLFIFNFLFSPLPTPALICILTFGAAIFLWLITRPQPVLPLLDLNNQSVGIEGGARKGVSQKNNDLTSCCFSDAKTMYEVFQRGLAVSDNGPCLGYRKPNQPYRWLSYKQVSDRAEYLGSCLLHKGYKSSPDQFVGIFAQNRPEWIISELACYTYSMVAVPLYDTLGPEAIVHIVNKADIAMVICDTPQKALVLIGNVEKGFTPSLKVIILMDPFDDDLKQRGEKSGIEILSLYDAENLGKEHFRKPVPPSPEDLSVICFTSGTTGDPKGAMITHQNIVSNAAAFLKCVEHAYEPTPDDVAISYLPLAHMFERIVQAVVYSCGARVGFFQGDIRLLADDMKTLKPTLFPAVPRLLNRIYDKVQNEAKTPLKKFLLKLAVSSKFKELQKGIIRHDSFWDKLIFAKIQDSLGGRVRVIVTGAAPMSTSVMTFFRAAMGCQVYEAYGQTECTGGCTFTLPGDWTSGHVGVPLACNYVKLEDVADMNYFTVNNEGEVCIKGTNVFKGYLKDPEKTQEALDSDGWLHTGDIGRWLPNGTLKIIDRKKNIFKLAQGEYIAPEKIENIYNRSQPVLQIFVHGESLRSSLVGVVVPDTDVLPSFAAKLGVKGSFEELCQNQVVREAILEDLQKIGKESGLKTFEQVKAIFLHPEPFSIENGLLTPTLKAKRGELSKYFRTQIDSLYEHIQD

Take `CC[C@@H](Oc1ccc(C(=O)NS(=O)(=O)c2ccc(OCC[C@H]3CCCCN3C)cc2)c(F)c1F)c1ccc(OCC2CC2)cn1` [4-((R)-1-(5-(cyclopropylmethoxy)pyridin-2-yl)propoxy)-2,3-difluoro-N-((4-(2-((R)-1-methylpiperidin-2-yl)ethoxy)phenyl)sulfonyl)benzamide]: the IC50 was less than 100 nM at hACSL5 [1] and 100 to 500 nM against hACSL5 [2].
As for `CC[C@@H](Oc1ccc(C(=O)NS(=O)(=O)c2ccc(OCCN3CC[C@H](F)C3)cc2)c(F)c1F)c1ccc(OCC2CC2)cn1` [4-((R)-1-(5-(cyclopropylmethoxy)pyridin-2-yl)propoxy)-2,3-difluoro-N-((4-(2-((S)-3-fluoropyrrolidin-1-yl)ethoxy)phenyl)sulfonyl)benzamide], the IC50 at hACSL5 [1] was less than 100 nM; at hACSL5 [2] it was 100 to 500 nM.
`CC[C@@H](Oc1ccc(C(=O)NS(=O)(=O)c2ccc(OC3CCN(C)C(C)(C)C3)cc2)c(F)c1F)c1ccc(OCC2CC2)cn1` (stereo partly drawn) [4-((R)-1-(5-(cyclopropylmethoxy)pyridin-2-yl)propoxy)-2,3-difluoro-N-((4-((1,2,2-trimethylpiperidin-4-yl)oxy)phenyl)sulfonyl)benzamide]: the figures for the IC50 at hACSL5 [1] and against hACSL5 [2] were less than 100 nM and 100 to 500 nM, respectively.
For `CC[C@@H](Oc1ccc(C(=O)NS(=O)(=O)c2ccc(OC3CCCN(C)C3)cc2)c(F)c1F)c1ccc(OCC2CC2)cn1` (stereo partly drawn) [4-((R)-1-(5-(cyclopropylmethoxy)pyridin-2-yl)propoxy)-2,3-difluoro-N-((4-((1-methylpiperidin-3-yl)oxy)phenyl)sulfonyl)benzamide], the IC50 at hACSL5 [1] and at hACSL5 [2] was less than 100 nM in each case.
As to `CC[C@@H](Oc1ccc(C(=O)NS(=O)(=O)c2ccc(O[C@@H]3C[C@H]4C[C@@H]3CN4C)cc2)c(F)c1F)c1ccc(OCC2CC2)cn1` [4-((R)-1-(5-(cyclopropylmethoxy)pyridin-2-yl)propoxy)-2,3-difluoro-N-((4-(((1R,4R,5R)-2-methyl-2-azabicyclo[2.2.1]heptan-5-yl)oxy)phenyl)sulfonyl)benzamide], the 50% inhibitory concentration (IC50) on hACSL5 [1] is less than 100 nM; at hACSL5 [2], more than 500 nM.
On to `CC[C@@H](Oc1ccc(C(=O)NS(=O)(=O)c2ccc(O[C@@H]3CCN(C)C3)cc2)c(F)c1F)c1ccc(OCC2CC2)cn1` [4-((R)-1-(5-(cyclopropylmethoxy)pyridin-2-yl)propoxy)-2,3-difluoro-N-((4-(((R)-1-methylpyrrolidin-3-yl)oxy)phenyl)sulfonyl)benzamide], for which the IC50 on hACSL5 [1] is less than 100 nM; on hACSL5 [2] it was 100 to 500 nM.
For `CC[C@@H](Oc1ccc(C(=O)NS(=O)(=O)c2ccc(O[C@H]3CCN(C)C3)cc2)c(F)c1F)c1ccc(OCC2CC2)cn1` [4-((R)-1-(5-(cyclopropylmethoxy)pyridin-2-yl)propoxy)-2,3-difluoro-N-((4-(((S)-1-methylpyrrolidin-3-yl)oxy)phenyl)sulfonyl)benzamide], the IC50 at hACSL5 [1] was less than 100 nM; against hACSL5 [2] it was 100 to 500 nM.
Regarding `CC[C@@H](Oc1ccc(C(=O)NS(=O)(=O)N2CC3CC2CC3OCCN2CCCC2)c(F)c1F)c1ccc(OCC2CC2)cn1` (stereo partly drawn) [4-((R)-1-(5-(cyclopropylmethoxy)pyridin-2-yl)propoxy)-2,3-difluoro-N-((5-(2-(pyrrolidin-1-yl)ethoxy)-2-azabicyclo[2.2.1]heptan-2-yl)sulfonyl)benzamide], the IC50 was less than 100 nM on hACSL5 [1] and 100 to 500 nM at hACSL5 [2].
`CC[C@@H](Oc1ccc(C(=O)NS(=O)(=O)N2CC3CC(C2)N3C)c(F)c1F)c1ccc(OCC2CC2)cn1` [4-((R)-1-(5-(cyclopropylmethoxy)pyridin-2-yl)propoxy)-2,3-difluoro-N-((6-methyl-3,6-diazabicyclo[3.1.1]heptan-3-yl)sulfonyl)benzamide]: the IC50 on hACSL5 [1] and against hACSL5 [2] was less than 100 nM each time.
In the case of `CC[C@@H](Oc1ccc(C(=O)NS(=O)(=O)N2CC3CCC(C2)N3C)c(F)c1F)c1ccc(OCC2CC2)cn1` [4-((R)-1-(5-(cyclopropylmethoxy)pyridin-2-yl)propoxy)-2,3-difluoro-N-((8-methyl-3,8-diazabicyclo[3.2.1]octan-3-yl)sulfonyl)benzamide], the 50% inhibitory concentration (IC50) on hACSL5 [1] and at hACSL5 [2] was less than 100 nM each time.
Turning to `CC[C@@H](Oc1ccc(C(=O)NS(=O)(=O)N2C[C@H]3C[C@@H]2CN3C)c(F)c1F)c1ccc(OCC2CC2)cn1` [4-((R)-1-(5-(cyclopropylmethoxy)pyridin-2-yl)propoxy)-2,3-difluoro-N-(((1R,4R)-5-methyl-2,5-diazabicyclo[2.2.1]heptan-2-yl)sulfonyl)benzamide], the IC50 on hACSL5 [1] and against hACSL5 [2] was 100 to 500 nM throughout.
Turning to `CC[C@@H](Oc1ccc(C(=O)NS(=O)(=O)N2C[C@@H]3C[C@H]2CN3C)c(F)c1F)c1ccc(OCC2CC2)cn1` [4-((R)-1-(5-(cyclopropylmethoxy)pyridin-2-yl)propoxy)-2,3-difluoro-N-(((1S,4S)-5-methyl-2,5-diazabicyclo[2.2.1]heptan-2-yl)sulfonyl)benzamide], the IC50 at hACSL5 [1] and on hACSL5 [2] was 100 to 500 nM throughout.
On to `CC[C@@H](Oc1ccc(C(=O)NS(=O)(=O)N2C[C@@H](C)N(C)[C@@H](C)C2)c(F)c1F)c1ccc(OCC2CC2)cn1` [4-((R)-1-(5-(cyclopropylmethoxy)pyridin-2-yl)propoxy)-2,3-difluoro-N-(((3S,5R)-3,4,5-trimethylpiperazin-1-yl)sulfonyl)benzamide], for which the half-inhibitory concentration (IC50) at hACSL5 [1] and against hACSL5 [2] was less than 100 nM throughout.
With `CC[C@@H](Oc1ccc(C(=O)NS(=O)(=O)N2CCN(C)[C@H](C)C2)c(F)c1F)c1ccc(OCC2CC2)cn1` [4-((R)-1-(5-(cyclopropylmethoxy)pyridin-2-yl)propoxy)-N-(((R)-3,4-dimethylpiperazin-1-yl)sulfonyl)-2,3-difluorobenzamide], the IC50 on hACSL5 [1] and against hACSL5 [2] was less than 100 nM in each case.
Consider `CC[C@@H](Oc1ccc(C(=O)NS(=O)(=O)N2CCN(C)[C@@H](C)C2)c(F)c1F)c1ccc(OCC2CC2)cn1` [4-((R)-1-(5-(cyclopropylmethoxy)pyridin-2-yl)propoxy)-N-(((S)-3,4-dimethylpiperazin-1-yl)sulfonyl)-2,3-difluorobenzamide], for which the IC50 on hACSL5 [1] and against hACSL5 [2] was less than 100 nM each time.
Turning to `CC[C@@H](Oc1ccc(C(=O)NS(=O)(=O)N2CCN(C)CC2(C)C)c(F)c1F)c1ccc(Oc2ccccn2)cn1` [(R)-2,3-difluoro-4-(1-(5-(pyridin-2-yloxy)pyridin-2-yl)propoxy)-N-((2,2,4-trimethylpiperazin-1-yl)sulfonyl)benzamide], the concentration for half-maximal inhibition (IC50) on hACSL5 [1] and against hACSL5 [2] was less than 100 nM each time.
Turning to `CC[C@@H](Oc1ccc(C(=O)NS(=O)(=O)C2CCN(C)CC2)c(F)c1F)c1ccc(Oc2ccccn2)cn1` [(R)-2,3-difluoro-N-((1-methylpiperidin-4-yl)sulfonyl)-4-(1-(5-(pyridin-2-yloxy)pyridin-2-yl)propoxy)benzamide], the IC50 was less than 100 nM at hACSL5 [1] and 100 to 500 nM against hACSL5 [2].
`CC[C@@H](Oc1ccc(C(=O)NS(=O)(=O)N2CCN(CC(C)(C)F)CC2)c(F)c1F)c1ccc(Oc2ccccn2)cn1` [(R)-2,3-difluoro-N-((4-(2-fluoro-2-methylpropyl)piperazin-1-yl)sulfonyl)-4-(1-(5-(pyridin-2-yloxy)pyridin-2-yl)propoxy)benzamide]: the IC50 on hACSL5 [1] and against hACSL5 [2] was less than 100 nM each time.
Take `CC[C@@H](Oc1ccc(C(=O)NS(=O)(=O)N2CCN(CC(C)(C)O)CC2)c(F)c1F)c1ccc(Oc2ccccn2)cn1` [(R)-2,3-difluoro-N-((4-(2-hydroxy-2-methylpropyl)piperazin-1-yl)sulfonyl)-4-(1-(5-(pyridin-2-yloxy)pyridin-2-yl)propoxy)benzamide]: the IC50 on hACSL5 [1] and against hACSL5 [2] was less than 100 nM in each case.
In the case of `CC[C@@H](Oc1ccc(C(=O)NS(=O)(=O)N2CCC(OC3CCN(CCOC)CC3)CC2)c(F)c1F)c1ccc(Oc2ccccn2)cn1` [(R)-2,3-difluoro-N-((4-((1-(2-methoxyethyl)piperidin-4-yl)oxy)piperidin-1-yl)sulfonyl)-4-(1-(5-(pyridin-2-yloxy)pyridin-2-yl)propoxy)benzamide], the IC50 on hACSL5 [1] and at hACSL5 [2] was less than 100 nM throughout.
As to `CC[C@@H](Oc1ccc(C(=O)NS(=O)(=O)N2CCC(OC3CCN(C)CC3)CC2)c(F)c1F)c1cc(Oc2ccccn2)ccn1` [(R)-2,3-difluoro-N-((4-((1-methylpiperidin-4-yl)oxy)piperidin-1-yl)sulfonyl)-4-(1-(4-(pyridin-2-yloxy)pyridin-2-yl)propoxy)benzamide], the IC50 was less than 100 nM on hACSL5 [1] and 100 to 500 nM at hACSL5 [2].
